Experimental data from US10654838B2, “Aminopyridine compounds useful as inhibitors of protein prenylation” (INSTITUT NATIONAL DE LA SANTE ET DE LA RECHERCHE MEDICALE …, priority 2014, dated 2020).

Tests used:
[1] = tested on: prelamin A farnesylation (nuclear localization of prelamin A) in HGPS MSCs; assay: Prelamin A localization cell-based assay; set-up: species or system human; conditions: for EC50: Homo sapiens, 48 h treatment, dose-response
Description: 2000 HGPS MSCs were plated in black 384-well clear-bottom plates (Corning). After 48 h of drug treatment, cells were fixed in 4% paraformaldehyde (15 minutes, room temperature). Permeabilization, blocking and primary hybridization steps were done concomitantly in a PBS solution supplemented with 0.1% triton X-100 and 1% BSA (Sigma-Aldrich, St. Louis, USA) and rabbit anti-prelamin A (ANTOO45, Diatheva) overnight at 4° C. Cells were stained with the species-specific fluorophore-conjugated secondary anti-rabbit antibody (Invitrogen) (one hour, room temperature) and nuclei were visualized with Hoechst 33342. These steps were automated using a washing/staining station (ELx405 Biotek, RapidStak Thermo, Multidrop Labsystems). Prelamin A localization was analyzed with an ayScan VTI HCS Reader (Cellomics). The first channel was used for nucleus identification (Hoechst 33342 staining) and the second one to identify prelamin A staining. Pictures were acquired with a 5× objective in high-resolution camera mode and were analyzed using the Spot Detector bioapplication. The robustness of the assay was evaluated using the Z′ factor calculated as ollows Z′=1−[3(SDP+SDN)/(MP−MN)] where MP and MN correspond to the means of the positive (tipifarnib 1 μM) and negative (DMSO 0.1%) controls, respectively, and SDP and SDN correspond to their standard deviation.
The primary screen was conducted on Biocell 1800 (Agilent). […]
Data analysis of the screening was performed using a customized Hiscreen application (Discngine, Paris, France) connected to Spotfire software (Tibco Co). Screening robustness was evaluated by calculating for each plate the Z'factor on the percentage of prelaminA nuclei parameter. […]
This study was performed on MSCs derived from HGPS iPS cells, differentiated as previously described (Blondel et al., 2014, Stem Cells Transl Med, VOL. 3: 510-519) and used after ten passages of amplification. […] A high throughput immunostaining assay was developed to robustly quantify prelamin A expression and localization in 384-well plates. […]

[2] = tested on: HDJ2; assay: Western blot analysis of HDJ2 farnesylation; assay type: cell-based, human
[3] = tested on: HGPS MSCs; assay: Nuclear shape abnormalities (lamin A/C immunostaining); assay type: cell-based, human; conditions: 48 h, lamin A/C staining
Description: In the 4-steps protocol, cells were fixed in 4% paraformaldehyde (15 minutes, room temperature) before permeabilization and blocking in PBS supplemented with 0.1% triton X-100 and 1% BSA (Sigma-Aldrich, St. Louis, USA). Primary antibodies were incubated one hour at room temperature in blocking buffer. Antibodies included mouse anti-lamins A/C (clone JOL2, Millipore, Billerica, USA), rabbit anti-prelamin A (ANTOO45, Diatheva) and anti-Ki67 (clone Ki-S5, MAB4190, Millipore, Billerica, USA). Cells were stained with the species-specific fluorophore-conjugated secondary antibody (Invitrogen) (one hour, room temperature) and nuclei were visualized with Hoechst 33342.

[4] = tested on: prelamin A; assay: Western immunoblotting of prelamin A; assay type: cell-based, human; conditions: HGPS MSCs, optimal concentration
Description: Whole-cell lysates of MSC were collected, separated by SDS-PAGE, and transferred onto PVPF membrane by liquid transfer method. Blots were blocked in 10% skim milk (Bio-Rad) in tween 0.1% tris-buffered saline (TTBS) 1× one hour at room temperature. The primary antibodies used were a mouse anti-lamins A/C 1:200 (Millipore, JOL2), a rabbit anti-prelamin A 1/100 (ANTOO45, Diatheva) and a β-actin 1/200000 (Sigma). Membranes were incubated during the night at 4° C. Antigen-antibody binding was detected using horseradish peroxidaseconjugated species-specific secondary antibodies (GE-Healthcare, Little Chalfont, UK) followed by enhanced chemiluminescence Western blotting detection reagents (Perkin-Elmer, Waltham, USA).

[5] = biological target: T1, HMGCR (Homo sapiens, UniProt P04035); assay: HMGCR colorimetric activity assay; assay type: biochemical
T1 construct: oxidation of NADPH by the catalytic subunit of HMGCR in the presence of the substrate HMG CoA; purchased Sigma-Aldrich
T1 sequence (P04035 340-888 limits assumed): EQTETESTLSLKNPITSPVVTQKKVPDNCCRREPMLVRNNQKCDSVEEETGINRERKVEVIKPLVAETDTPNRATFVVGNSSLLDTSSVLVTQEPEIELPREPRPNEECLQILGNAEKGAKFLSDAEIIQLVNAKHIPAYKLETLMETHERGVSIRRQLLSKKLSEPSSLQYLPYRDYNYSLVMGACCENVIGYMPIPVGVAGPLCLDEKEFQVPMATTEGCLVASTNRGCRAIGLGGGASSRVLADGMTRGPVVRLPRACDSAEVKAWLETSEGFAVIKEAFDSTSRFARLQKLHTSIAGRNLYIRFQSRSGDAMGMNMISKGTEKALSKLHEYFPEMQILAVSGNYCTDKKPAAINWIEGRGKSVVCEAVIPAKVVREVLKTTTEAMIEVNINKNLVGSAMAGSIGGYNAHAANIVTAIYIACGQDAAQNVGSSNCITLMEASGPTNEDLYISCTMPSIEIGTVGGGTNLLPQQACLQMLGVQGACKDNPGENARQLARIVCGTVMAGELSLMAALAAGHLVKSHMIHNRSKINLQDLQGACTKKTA
Description: HMGCR activity was measured using GCoA Reductase Assay Kit (Sigma-Aldrich) according to the manufacturer's protocol. The assay is based on the spectrophotometric measurement of the decrease in absorbance at 340 nm, which represents the oxidation of NADPH by the catalytic subunit of HMGCR in the presence of the substrate HMG CoA.

[6] = biological target: T2, FT (Homo sapiens, UniProt P49354+P49356); assay: FT activity assay (Farnesyltransferase [3H] SPA); assay type: biochemical; conditions: concentration inducing 50% of the maximum inhibiting effect of the compound
T2 construct: Reactions were started by adding 40 μL of treated or untreated cell lysate; endogenous in cells; host or cells: HGPS MSCs (cell lysate)
Description: (§1) Cell pellet of HGPS MSCs were resuspended in 25 mM Tris-HCl pH 7.4, 1 mM DTT, 1 mM MgCl2, 1 EDTA, 1 mM PMSF and centrifuged at 10,000×g for 10 min at 4° C. Protein content was determined using Lowry's method. Aliquots of cell lysate containing 100 μg of total proteins were incubated with tested substances at 37° C. for 30 min.
FT activity was determined by Famesyltransferase [3H] SPA enzyme assay (Amersham Life Science, Buckinghamshire, England). Briefly, FT activity was assayed in 20 μl of assay buffer containing 50 mmol/L Hepes, 30 mmol/L MgCl2, 20 mmol/L KCl and 5 mmol/L dithiothreitol, 20 μl of [3H]-FPP (12 pmol) and 20 μl of biotin lamin B. Reactions were started by adding 40 μL of treated or untreated cell lysate and incubated for 1 hour at 37° C. Reactions were stopped by the addition of 150 μL of stop reagent containing SPA bead and counted in a scintillation counter. FT activity was expressed as pmoles of incorporated [3H]-FPP into biotin lamin-B peptide per minute per milligram of total proteins (pmol/min/mg prot). Parallel samples were assayed to evaluate the total and the nonspecific radioactivity. In all experiments enzyme assays were carried out in triplicate.

[7] = biological target: T3, FPPS (Homo sapiens, UniProt P14324); assay: FPPS activity assay; assay type: biochemical; set-up: endogenous in cells; host or cells: HGPS MSCs (cell lysate); conditions: concentration inducing 50% of the maximum inhibiting effect of the compound
T3 sequence (P14324 1-419): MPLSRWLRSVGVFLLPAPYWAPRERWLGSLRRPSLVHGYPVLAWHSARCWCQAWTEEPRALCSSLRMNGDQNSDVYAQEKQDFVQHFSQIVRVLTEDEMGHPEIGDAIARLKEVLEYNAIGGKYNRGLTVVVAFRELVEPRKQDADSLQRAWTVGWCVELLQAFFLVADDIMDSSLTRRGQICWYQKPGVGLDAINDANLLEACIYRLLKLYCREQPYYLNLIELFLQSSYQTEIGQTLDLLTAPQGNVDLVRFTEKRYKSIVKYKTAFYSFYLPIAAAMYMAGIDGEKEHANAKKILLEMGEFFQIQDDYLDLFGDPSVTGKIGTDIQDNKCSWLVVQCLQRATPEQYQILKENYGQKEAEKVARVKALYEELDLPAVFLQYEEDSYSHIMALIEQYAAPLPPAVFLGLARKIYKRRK
Description: as §1
FPPS assay was carried out with some modifications of the procedure of Krisans et al. (Krisans et al., 1994, The Journal of biological chemistry VOL. 269: 14165-14169) and described by Gupta et al. (Gupta et al., 1999, Eur J Med Chem, VOL. 43: 2751-2767). Briefly, FPPS was assayed in 150 μL containing 25 mmol/L Hepes, pH=7, 2 mmol/L MgCl2, 1 mmol/L dithiothreitol, 5 mmol/L KF, 1% A noctyl-β-glucopyranoside, 3.3 μmol/L [4-14C] IPP (18 Ci/mmol), 3 μmol/L unlabeled IPP and 20 μmol/L geranyl diphosphate. Reactions were started by adding 40 μL of treated or untreated cell lysate and incubated for 45 min at 37° C. Reactions were stopped by the addition of 150 μL 2.5 mol/L HCl in 80% ethanol containing 100 μg/mL farnesol as a carrier. The samples were hydrolyzed for 30 min at 37° C. to convert the FPP to farnesol and neutralized by the addition of 150 μL of 10% NaOH. The reaction product (farnesol) was extracted into 1 mL of N-hexane and an aliquot (200 μL) of the organic phase was used for radioactivity counting. Parallel samples were assayed to evaluate the total and the nonspecific radioactivity. In all experiments, enzyme assays were carried out in triplicate.

[8] = tested on: HGPS MSCs; assay: Live cell imaging (cell density); assay type: cell-based, human; conditions: 7 days
Description: HGPS MSCs were seeded at 2500 cells per well in 96-well plates and cultivated during 7 days in presence of the drugs. Cell density was monitored using an IncuCyte ZOOM microscope (Essen Bioscience). Each value corresponds to the mean of cell densities of four pictures taken in three independent wells.

SMILES	unfarnesylated form of HDJ2 [2]	rescue of nuclear shape abnormalities [3]	EC50 [1] [nM]	further results
CCOC(=O)CN1CCN(c2nccc(C(C#N)c3ccccn3)n2)CC1 (stereo not drawn) [Mono-AP25, {4-[4-(Cyano-pyridin-2-yl-methyl)-pyrimidin-2-yl]-piperazin-1-yl}-acetic acid ethyl ester]	–	–	–	efficiency on prelamin A farnesylation (in words) ([1]; dose response): decrease in efficiency
CCCc1c(C(=O)N2CCN(c3cc(N(C)c4cccc(C)c4)ncn3)CC2)cnn1-c1ccccc1 [Di-AP2, {4-[6-(Methyl-m-tolyl-amino)-pyrimidin-4-yl]-piperazin-1-yl}-(1-phenyl-5-propyl-1H-pyrazol-4-yl)-methanone]	increase of the unfarnesylated form of the protein	restored significantly	–	prelamin A level (Western blot) [4]: increased
N#CC(c1ccccn1)c1ccnc(N2CCN(Cc3cccc(F)c3)CC2)n1 (stereo not drawn) [Mono-AP28, {2-[4-(3-Fluoro-benzyl)-piperazin-1-yl]-pyrimidin-4-yl}-pyridin-2-yl-acetonitrile]	–	–	2000	–
N#CC(c1ccccn1)c1ccnc(N2CCC(O)(Cc3ccccc3)CC2)n1 (stereo not drawn) [Mono-AP3, [2-(4-Benzyl-4-hydroxy-piperidin-1-yl)-pyrimidin-4-yl]-pyridin-2-yl-acetonitrile]	increase of the unfarnesylated form of the protein	restoring HGPS MSCs nuclear shape defects at levels not significantly different from the FTI tipifarnib	–	IC50 (μM) HMGCR [5]: No inhibition; IC50 [6]: 0.35 µM; IC50 [7]: 5.54 µM; cytostatic effect in long term live imaging cultures [8]: less cytostatic than the FTI tipifarnib
Cc1cccc(CN2CCN(c3nccc(C(C#N)c4ccccn4)n3)CC2)c1 (stereo not drawn) [Mono-AP21, {2-[4-(3-Methyl-benzyl)-piperazin-1-yl]-pyrimidin-4-yl}-pyridin-2-yl-acetonitrile]	–	–	1500	–
